Experimental data as given in patent US20250340565A1, “CD73 INHIBITOR COMPOUNDS” (AdoRx Therapeutics Limited, priority 2022, published 2025).
Counter-ions that a name gives are not always drawn.

Legend:
[1] = molecular target: CD73 in whole blood (Homo sapiens (Human), UniProt P21589); assay: Whole blood AMP Glo assay; type: cell-based; settings: whole blood of healthy volunteers, 10 μM AMP, 30 min pre-incubation, 15 min at 37° C., levamisole 1.5 mM
Procedure, shortened: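 Heparinised healthy-donor human whole blood, with 1.5 mM levamisole, preincubated with compound 30 min at 37 °C, then 10 μM AMP added for 15 min at 37 °C (0.6% DMSO). Remaining plasma AMP measured by AMP-Glo luminescence against a standard curve; IC50 from curve inflection point.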

[2] = molecular target: human (h)CD73 (amino acids Trp27-Lys547) (Homo sapiens, UniProt P21589); assay: CD73 inhibition assay (Malachite Green phosphate detection); type: biochemical; settings: 250 pM hCD73, 12.5 μM AMP, 20 min pre-incubation, absorbance 620 nm
Procedure, shortened: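 250 pM hCD73 (Trp27-Lys547) preincubated 20 min with compound (1% DMSO) in 25 mM Tris pH 7.5, 5 mM MgCl2, 0.002% Tween20. Reaction with 12.5 μM AMP for 20 min at room temperature; phosphate detected by malachite green at 620 nm. Data normalised to no compound (0%) and 10 μM control compound (100%).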

[3] = molecular target: CD73 activity in U138-MG cells (Homo sapiens (Human), UniProt P21589); assay: U138-MG inhibition assay (inorganic phosphate from AMP, PiColorLock Gold); type: cell-based; settings: 100 μM AMP, 30 min pre-incubation, 1 hour at 37° C.
Sequence of CD73 activity in U138-MG cells (P21589 27-574): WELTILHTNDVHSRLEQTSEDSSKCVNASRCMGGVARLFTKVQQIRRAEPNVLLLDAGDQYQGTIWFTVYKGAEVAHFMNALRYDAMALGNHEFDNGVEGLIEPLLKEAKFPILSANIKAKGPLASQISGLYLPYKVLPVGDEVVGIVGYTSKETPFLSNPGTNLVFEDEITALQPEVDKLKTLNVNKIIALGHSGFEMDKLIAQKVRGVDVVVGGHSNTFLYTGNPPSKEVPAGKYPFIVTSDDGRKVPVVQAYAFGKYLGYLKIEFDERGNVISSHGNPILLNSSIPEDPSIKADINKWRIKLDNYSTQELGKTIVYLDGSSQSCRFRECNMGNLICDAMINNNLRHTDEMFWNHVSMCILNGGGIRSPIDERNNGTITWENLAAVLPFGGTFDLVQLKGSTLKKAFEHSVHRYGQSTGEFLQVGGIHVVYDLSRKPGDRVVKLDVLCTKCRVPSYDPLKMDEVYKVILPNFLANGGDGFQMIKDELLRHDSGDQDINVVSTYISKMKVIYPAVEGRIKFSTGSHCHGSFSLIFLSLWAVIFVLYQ
Procedure, shortened: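 Washed U138-MG cells in HEPES-buffered saline (pH 7.4) preincubated 30 min at 37 °C with inhibitor, then given 100 μM AMP (final) for 1 h at 37 °C. Released phosphate in supernatant read by PiColorLock Gold; no-AMP wells define 100% inhibition. IC50 taken as inflection of sigmoidal curve.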

Sequence of CD73 in whole blood (P21589 27-574): as above

| SMILES | IC50 [1] [nM] | IC50 [2] [nM] | IC50 [3] [nM] |
| --- | --- | --- | --- |
| O=c1[nH]cc(-c2cc3c(N4CCC(OCCN5CCC(C(F)(F)F)CC5)C4)ncnc3o2)c(=O)[nH]1 (stereo not drawn) [Example 21, 5-[4-[3-[2-[4-(Trifluoromethyl)-1-piperidyl]ethoxy]pyrrolidine-1-yl]furo[2,3-d]pyrimidin-6-yl]-1H-pyrimidine-2,4-dione] | 40.2 | 100 | 70.8 |
| O=C(OC1CN(c2ncnc3oc(-c4c[nH]c(=O)[nH]c4=O)cc23)CC1(F)F)N1CCOCC1 (stereo not drawn) [Example 22, [1-[6-(2,4-Dioxo-1H-pyrimidin-5-yl)furo[2,3-d]pyrimidin-4-yl]-4,4-difluoro-pyrrolidin-3-yl]morpholine-4-carboxylate] | 65.5 | 136 | 84.5 |
| O=c1[nH]cc(-c2cc3c(N4CCC(OCCN5CCCCC5)C4)ccnc3s2)c(=O)[nH]1 (stereo not drawn) [Example 14, 5-[4-[3-[2-(1-Piperidyl)ethoxy]pyrrolidin-1-yl]thieno[2,3-b]pyridin-2-yl]-1H-pyrimidine-2,4-dione] | 549 | 62.8 | 177 |
| CC1(C)CN(c2ccnc3nn(-c4c[nH]c(=O)[nH]c4=O)cc23)CC1(F)F [Example 30, 5-[4-(3,3-difluoro-4,4-dimethyl-pyrrolidin-1-yl)pyrazolo[3,4-b]pyridine-2-yl]-1H-pyrimidine-2,4-dione] | 20 | 115 | 12 |
| O=c1[nH]cc(-n2cc3c(N4CC(F)(F)C5(CCC5)C4)ncc(Cl)c3n2)c(=O)[nH]1 [Example 28.2, 5-[7-chloro-4-(8,8-difluoro-6-azaspiro[3.4]octan-6-yl)pyrazolo[4,3-c]pyridin-2-yl]-1H-pyrimidine-2,4-dione] | 26 | 20 | 1.9 |
| O=c1[nH]cc(-c2cc3c(N4CCC(OCCO)C4)ncnc3s2)c(=O)[nH]1 (stereo not drawn) [Example 1.3, 5-[4-[3-(2-Hydroxyethoxy)pyrrolidin-1-yl]thieno[2,3-d]pyrimidin-6-yl]-1H-pyrimidine-2,4-dione] | 3160 | 489 | 717 |
| Cc1nc(N2CC(C)(C)C(F)(F)C2)c2cn(-c3c[nH]c(=O)[nH]c3=O)nc2n1 [Example 23, 5-[4-(3,3-Difluoro-4,4-dimethyl-pyrrolidin-1-yl)-6-methyl-pyrazolo[3,4-d]pyrimidin-2-yl]-1H-pyrimidine-2,4-dione] | 1.5 | 152 | 10.5 |
| CC1(C)CN(c2cncc3nn(-c4c[nH]c(=O)[nH]c4=O)cc23)CC1(F)F [Example 31, 5-[4-(3,3-difluoro-4,4-dimethyl-pyrrolidin-1-yl)pyrazolo[3,4-c]pyridine-2-yl]-1H-pyrimidine-2,4-dione] | 32 | 20.8 | 12.3 |
| COC1CN(c2ncnc3nn(-c4c[nH]c(=O)[nH]c4=O)cc23)CC1(F)F (stereo not drawn) [Example 13.11, 5-[4-(3,3-Difluoro-4-methoxy-pyrrolidin-1-yl)pyrazolo[3,4-d]pyrimidin-2-yl]-1H-pyrimidine-2,4-dione] | 1.5 | 49.2 | 3.2 |
| O=c1[nH]cc(-n2cc3c(N4C[C@H]5COC[C@H]5C4)ncnc3n2)c(=O)[nH]1 [Example 13.9, 5-[4-[(3aR,6aS)-1,3,3a,4,6,6a-Hexahydrofuro[3,4-c]pyrrol-5-yl]pyrazolo[3,4-d]pyrimidin-2-yl]-1H-pyrimidine-2,4-dione] | 5.5 | 303 | 49.2 |
| O=c1[nH]cc(-c2cc3c(N4CCC(OCCN5CCCCC5)C4)ncnn3c2)c(=O)[nH]1 (stereo not drawn) [Example 10, 5-[4-[3-[2-(1-Piperidyl)ethoxy]pyrrolidin-1-yl]pyrrolo[2,1-f][1,2,4]triazin-6-yl]pyrimidine-2,4-diol] | 29.6 | 20.7 | 51.9 |
| O=c1[nH]cc(-c2cc3c(N4CCC(CCO)C4)ncnc3s2)c(=O)[nH]1 (stereo not drawn) [Example 1.1, 5-[4-[3-(2-Hydroxyethyl)pyrrolidin-1-yl]thieno[2,3-d]pyrimidin-6-yl]-1H-pyrimidine-2,4-dione] | 8760 | 677 | 2310 |
| N#Cc1cnc2sc(-c3c[nH]c(=O)[nH]c3=O)cc2c1N1CCC(OCCN2CCCCC2)C1 (stereo not drawn) [Example 11, 2-(2,4-Dioxo-1H-pyrimidin-5-yl)-4-[3-[2-(1-piperidyl)ethoxy]pyrrolidin-1-yl]thieno[2,3-b]pyridine-5-carbonitrile] | 686 | 103 | 246 |
| CC1(C)CN(c2nccn3nc(-c4c[nH]c(=O)[nH]c4=O)cc23)CC1(F)F [Example 25, 5-[4-(3,3-Difluoro-4,4-dimethyl-pyrrolidin-1-yl)pyrazolo[1,5-a]pyrazin-2-yl]-1H-pyrimidine-2,4-dione] | 155 | 34.2 | 38.6 |
| CC1(C)CN(c2ncnc3oc(-c4c[nH]c(=O)[nH]c4=O)cc23)CC1(F)F [Example 7.1, 5-[4-(3,3-Difluoro-4,4-dimethyl-pyrrolidin-1-yl)furo[2,3-d]pyrimidin-6-yl]-1H-pyrimidine-2,4-dione] | 444 | 25.4 | 22.8 |
| CC1(C)CCN(c2ncnc3nn(-c4c[nH]c(=O)[nH]c4=O)cc23)C1 [Example 13.6, 5-[4-(3,3-Dimethylpyrrolidin-1-yl)pyrazolo[3,4-d]pyrimidin-2-yl]-1H-pyrimidine-2,4-dione] | 1.19 | 31.1 | 8.6 |
| O=C(OC1CN(c2ncnc3oc(-c4c[nH]c(=O)[nH]c4=O)cc23)CC1(F)F)N1CC2CCC(C1)O2 (stereo not drawn) [Example 22.1, [1-[6-(2,4-Dioxo-1H-pyrimidin-5-yl)furo[2,3-d]pyrimidin-4-yl]-4,4-difluoro-pyrrolidin-3-yl]8-oxa-3-azabicyclo[3.2.1]octane-3-carboxylate] | 139 | 152 | 61.9 |
| CCC1(C)CCN(c2ncnc3nn(-c4c[nH]c(=O)[nH]c4=O)cc23)C1 (stereo not drawn) [Example 13.5, 5-[4-(3-Ethyl-3-methyl-pyrrolidin-1-yl)pyrazolo[3,4-d]pyrimidin-2-yl]-1H-pyrimidine-2,4-dione] | 2.12 | 84.7 | 10.5 |
| O=c1[nH]cc(-c2cc3c(N4CCC(OCCN5CCCCC5)C4)ncnc3o2)c(=O)[nH]1 (stereo not drawn) [Example 7, 5-[4-[3-[2-(1-Piperidyl)ethoxy]pyrrolidin-1-yl]furo[2,3-d]pyrimidin-6-yl]-1H-pyrimidine-2,4-dione formate salt] | 12.5 | 22.8 | 7.2 |
